Laboratory results reported in article PMC12446476 (Nature Communications, 2025).

Legend:
[1] = tested on: N. gonorrhoeae; test: N. gonorrhoeae murine vaginal infection model, efficacy; assay type: in vivo, mouse
Experimental: The N. gonorrhoeae female mouse vaginal model[45] was performed in accordance with the Guide for Care and Use of Laboratory Animals[75]. Animal rooms were maintained at a temperature range of 20–24 °C and humidity between 30% and 70%, with 12 h light/dark cycles. Ovariectomized BALB/c female mice (5–6 weeks, BioLASCO Taiwan Co., Ltd.) were treated with estradiol (0.23 mg/mouse) two days before infection and on the day of infection. Ovariectomized mice were used to avoid staging mice before treating them with estradiol. Beginning two days prior to infection and maintained until the end of the study, animals were treated twice daily with streptomycin (1.2 mg/mouse) and vancomycin (0.6 mg/mouse) each via intraperitoneal (IP) injection and received trimethoprim sulfate in the drinking water (0.4 mg/mL) to control vaginal microflora. Animals were anesthetised with pentobarbital (80 mg/kg), the vagina was rinsed with 50 mM HEPES (pH 7.4), and then inoculated with N. gonorrhoeae in pre-warmed PBS (0.02 mL/mouse containing ~1 × 10^5 CFU).
Control groups received either a single IP injection of ceftriaxone or 5% dextrose (vehicle) twice daily. Animals were sacrificed via CO2 asphyxiation at either 2 h (baseline), 26 and/or 50 h post-infection. Vaginal lavage was performed twice with 200 µL GC broth containing 0.05% saponin to recover bacteria. Bacterial burden in the lavage fluids was determined by performing 10-fold serial dilutions and plating on chocolate agar plates. Four strains were assessed using the model; ATCC 700825 is naturally streptomycin-resistant, whereas AR Bank0179-15, AR Bank0181-17 and WHO X-07 are derivatives of AR Bank0179, AR Bank0181 and WHO X, respectively, that were engineered for streptomycin resistance for use in the model.

[2] = tested on: S. aureus ATCC 29213; test: S. aureus neutropenic murine thigh infection model; assay type: in vivo, mouse; settings: for reduction in thighs: dosed as Debio 1453 P; for Mean Diff. 0h vs. treatment, log10 CFU: S. aureus ATCC 29213, daily dose
Experimental: The S. aureus neutropenic murine thigh infection model was performed in accordance with the Guide for Care and Use of Laboratory Animals[75]. Animal rooms were maintained at a temperature range of 20–24 °C and humidity between 30% and 70%, with 12 h light/dark cycles. Female ICR mice (BioLASCO Taiwan Co., Ltd.) were rendered neutropenic via IP injection of cyclophosphamide four days before infection (150 mg/kg) and again one day before infection (100 mg/kg). Animals were anaesthetised with isoflurane (3–5%), then inoculated intramuscularly with S. aureus ATCC 29213 (~1 × 10^5 CFU/mouse). […] Animals were sacrificed via CO2 asphyxiation at either 2 h (baseline), 26 and/or 50 h post-infection. Thigh tissues were harvested and homogenised in 3 mL sterile PBS (pH 7.4). Bacterial burdens were determined by performing 10-fold serial dilutions and plating on nutrient agar plates.

**Q.** With `Cc1c(CN(C)C(=O)/C=C/c2cnc3c(c2)N[C@H](C)[C@H](O)C(=O)N3)oc2ccccc12` [Debio 1453] as the compound, how does the “Mean Diff. 0h vs. treatment, log10 CFU” value ([1]; AR Bank0179-15, 20 µg/mL Debio 1453, 24h) read?
**A.** -1.082

**Q.** What about the “Mean Diff. 0h vs. treatment, log10 CFU” value ([1]; AR Bank0179-15, 20 µg/mL Debio 1453, 48h) of the same compound?
**A.** -1.16

**Q.** And the “Mean Diff. 0h vs. treatment, log10 CFU” value ([1]; AR Bank0179-15, 40 µg/mL Debio 1453, 24h)?
**A.** -0.242

**Q.** What about the “Mean Diff. 0h vs. treatment, log10 CFU” value ([1]; AR Bank0179-15, 40 µg/mL Debio 1453, 48h) of the same compound?
**A.** 1.58

**Q.** And the “Mean Diff. 0h vs. treatment, log10 CFU” value ([1]; AR Bank0179-15, 60 µg/mL Debio 1453, 24h)?
**A.** 1.644

**Q.** What about the “Mean Diff. 0h vs. treatment, log10 CFU” value ([1]; AR Bank0179-15, 60 µg/mL Debio 1453, 48h) of the same compound?
**A.** 2.864

**Q.** And the “Mean Diff. 0h vs. treatment, log10 CFU” value ([1]; AR Bank0179-15, 80 µg/mL Debio 1453, 24h)?
**A.** 1.958

**Q.** And the “Mean Diff. 0h vs. treatment, log10 CFU” value ([1]; AR Bank0179-15, 80 µg/mL Debio 1453, 48h)?
**A.** 2.964

**Q.** What about the “Mean Diff. 0h vs. treatment, log10 CFU” value ([1]; AR Bank0179-15, 24h) of the same compound?
**A.** 3.186

**Q.** And the “Mean Diff. 0h vs. treatment, log10 CFU” value ([1]; AR Bank0179-15, 48h)?
**A.** 3.186

**Q.** What about the “Mean Diff. 0h vs. treatment, log10 CFU” value ([1]; AR Bank0181-17, 40 µg/mL Debio 1453, 24h) of the same compound?
**A.** -1.694

**Q.** And the “Mean Diff. 0h vs. treatment, log10 CFU” value ([1]; AR Bank0181-17, 40 µg/mL Debio 1453, 48h)?
**A.** -0.796

**Q.** And the “Mean Diff. 0h vs. treatment, log10 CFU” value ([1]; AR Bank0181-17, 60 µg/mL Debio 1453, 24h)?
**A.** -1.094

**Q.** And the “Mean Diff. 0h vs. treatment, log10 CFU” value ([1]; AR Bank0181-17, 60 µg/mL Debio 1453, 48h)?
**A.** -0.998

**Q.** What about the “Mean Diff. 0h vs. treatment, log10 CFU” value ([1]; AR Bank0181-17, 80 µg/mL Debio 1453, 24h) of the same compound?
**A.** -0.986

**Q.** And the “Mean Diff. 0h vs. treatment, log10 CFU” value ([1]; AR Bank0181-17, 80 µg/mL Debio 1453, 48h)?
**A.** -0.852

**Q.** What about the “Mean Diff. 0h vs. treatment, log10 CFU” value ([1]; AR Bank0181-17, 320 µg/mL Debio 1453, 24h) of the same compound?
**A.** 3.42

**Q.** What about the “Mean Diff. 0h vs. treatment, log10 CFU” value ([1]; AR Bank0181-17, 320 µg/mL Debio 1453, 48h) of the same compound?
**A.** 3.56

**Q.** And the “Mean Diff. 0h vs. treatment, log10 CFU” value ([1]; AR Bank0181-17, 24h)?
**A.** 0.842

**Q.** What about the “Mean Diff. 0h vs. treatment, log10 CFU” value ([1]; AR Bank0181-17, 48h) of the same compound?
**A.** 1.134

**Q.** What about the “Mean Diff. 0h vs. treatment, log10 CFU” value ([1]; ATCC 700825, 20 µg/mL Debio 1453, 24h) of the same compound?
**A.** -0.874

**Q.** What about the “Mean Diff. 0h vs. treatment, log10 CFU” value ([1]; ATCC 700825, 20 µg/mL Debio 1453, 48h) of the same compound?
**A.** -1.386

**Q.** And the “Mean Diff. 0h vs. treatment, log10 CFU” value ([1]; ATCC 700825, 40 µg/mL Debio 1453, 24h)?
**A.** -0.322

**Q.** And the “Mean Diff. 0h vs. treatment, log10 CFU” value ([1]; ATCC 700825, 40 µg/mL Debio 1453, 48h)?
**A.** -0.946

**Q.** And the “Mean Diff. 0h vs. treatment, log10 CFU” value ([1]; ATCC 700825, 60 µg/mL Debio 1453, 24h)?
**A.** 1.296

**Q.** What about the “Mean Diff. 0h vs. treatment, log10 CFU” value ([1]; ATCC 700825, 60 µg/mL Debio 1453, 48h) of the same compound?
**A.** 2.468

**Q.** And the “Mean Diff. 0h vs. treatment, log10 CFU” value ([1]; ATCC 700825, 80 µg/mL Debio 1453, 24h)?
**A.** 2.796

**Q.** And the “Mean Diff. 0h vs. treatment, log10 CFU” value ([1]; ATCC 700825, 80 µg/mL Debio 1453, 48h)?
**A.** 3.082

**Q.** What about the “Mean Diff. 0h vs. treatment, log10 CFU” value ([1]; ATCC 700825, 24h) of the same compound?
**A.** 2.942

**Q.** What about the “Mean Diff. 0h vs. treatment, log10 CFU” value ([1]; ATCC 700825, 48h) of the same compound?
**A.** 3.082

**Q.** And the “Mean Diff. 0h vs. treatment, log10 CFU” value ([1]; WHO X-07, 40 µg/mL Debio 1453, 24h)?
**A.** -1.944

**Q.** And the “Mean Diff. 0h vs. treatment, log10 CFU” value ([1]; WHO X-07, 40 µg/mL Debio 1453, 48h)?
**A.** -2.102

**Q.** And the “Mean Diff. 0h vs. treatment, log10 CFU” value ([1]; WHO X-07, 60 µg/mL Debio 1453, 24h)?
**A.** -1.81

**Q.** And the “Mean Diff. 0h vs. treatment, log10 CFU” value ([1]; WHO X-07, 60 µg/mL Debio 1453, 48h)?
**A.** -1.666

**Q.** What about the “Mean Diff. 0h vs. treatment, log10 CFU” value ([1]; WHO X-07, 80 µg/mL Debio 1453, 24h) of the same compound?
**A.** -1.492

**Q.** And the “Mean Diff. 0h vs. treatment, log10 CFU” value ([1]; WHO X-07, 80 µg/mL Debio 1453, 48h)?
**A.** -1.246

**Q.** And the “Mean Diff. 0h vs. treatment, log10 CFU” value ([1]; WHO X-07, 320 µg/mL Debio 1453, 24h)?
**A.** 3.01

**Q.** What about the “Mean Diff. 0h vs. treatment, log10 CFU” value ([1]; WHO X-07, 320 µg/mL Debio 1453, 48h) of the same compound?
**A.** 3.322

**Q.** What about the “Mean Diff. 0h vs. treatment, log10 CFU” value ([1]; WHO X-07, 24h) of the same compound?
**A.** 2.532

**Q.** And the “Mean Diff. 0h vs. treatment, log10 CFU” value ([1]; WHO X-07, 48h)?
**A.** 3.114

**Q.** What about the “reduction compared to the start of treatment (0 h)” value ([1]; each of four strains, dosed as Debio 1453 P, limit of detection by 48 h for at least one dose level) of the same compound?
**A.** ~ 3 log10CFU/mL

**Q.** And the reduction in thighs ([2]; 24 h)?
**A.** > 1 log10CFU/mL

**Q.** What about the reduction in thighs ([2]; 48 h) of the same compound?
**A.** > 2 log10CFU

**Q.** What about the “Mean Diff. 0h vs. treatment, log10 CFU” value ([2]; 20 µg/mL Debio 1453, 24h) of the same compound?
**A.** -1.552

**Q.** What about the “Mean Diff. 0h vs. treatment, log10 CFU” value ([2]; 20 µg/mL Debio 1453, 48h) of the same compound?
**A.** -2.396

**Q.** What about the “Mean Diff. 0h vs. treatment, log10 CFU” value ([2]; 40 µg/mL Debio 1453, 24h) of the same compound?
**A.** -0.054

**Q.** And the “Mean Diff. 0h vs. treatment, log10 CFU” value ([2]; 40 µg/mL Debio 1453, 48h)?
**A.** -1.464

**Q.** What about the “Mean Diff. 0h vs. treatment, log10 CFU” value ([2]; 60 µg/mL Debio 1453, 24h) of the same compound?
**A.** 1.22

**Q.** What about the “Mean Diff. 0h vs. treatment, log10 CFU” value ([2]; 60 µg/mL Debio 1453, 48h) of the same compound?
**A.** 1.476

**Q.** And the “Mean Diff. 0h vs. treatment, log10 CFU” value ([2]; 80 µg/mL Debio 1453, 24h)?
**A.** 1.132

**Q.** And the “Mean Diff. 0h vs. treatment, log10 CFU” value ([2]; 80 µg/mL Debio 1453, 48h)?
**A.** 2.658

**Q.** And the “Mean Diff. 0h vs. treatment, log10 CFU” value ([2]; 160 µg/mL Debio 1453, 24h)?
**A.** 1.558

**Q.** And the “Mean Diff. 0h vs. treatment, log10 CFU” value ([2]; 160 µg/mL Debio 1453, 48h)?
**A.** 2.682
